The experiment has as its system HMVEC. Kind of experiment: human microvascular endothelial (HMVEC) migration assay. The experiment is classed as cell-based. As to conditions: Inhibition of HMVEC migration, activators 15 ng/mL bFGF/VEGF, 4 hours at 37 °C, compared to a positive control; for inhibition at 0.001 µM / inhibition at 0.0001 µM / inhibition at 10 pM: Homo sapiens; for inhibition at 0.0001 µM: 0.1 nM; for inhibition at 10 pM: 0.01 nM. The procedure, abridged:
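Dermal (single-donor) and neonatal microvascular endothelial cells, serum-starved overnight in DME/0.01% BSA, attached 2 h at 37 °C to gelatin-coated 5 µm membranes in a modified Boyden chamber. Test substances with 15 ng/mL bFGF/VEGF added; migration over 4 h at 37 °C. Stained migrated cells counted per high-power field, background subtracted, or given as % inhibition versus positive control.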

With `CCCN(C(=O)N[C@@H]1CCN(C(=O)c2ccc(C)nc2)C1)C(C)CC` (stereo partly drawn) [Example 65, N-(sec-butyl)-N'-{(3R)-1-[(6-methylpyridin-3-yl)carbonyl]pyrrolidin-3-yl}-N-propylurea], testing at 0.001 µM (1 nM) gave an inhibition of 98%.
For the compound `CCCCN(CCCC)C(=O)N[C@@H]1CCN(C(=O)c2ccc(C)nc2)C1` [Example 66, N,N-dibutyl-N'-{(3R)-1-[(6-methylpyridin-3-yl)carbonyl]pyrrolidin-3-yl} urea], 0.0001 µM produced 84% inhibition.
As to `Cc1ccc(C(=O)N2CC[C@@H](NC(=O)N(CCC#N)C3CC3)C2)cn1` [Example 67, N-(2-cyanoethyl)-N-cyclopropyl-N'-{(3R)-1-[(6-methylpyridin-3-yl)carbonyl]pyrrolidin-3-yl}urea], at 0.0001 µM the inhibition was 73%.
As for `CCC1CCCCN1C(=O)N[C@@H]1CCN(C(=O)c2ccc(C)nc2)C1` (stereo partly drawn) [Example 68, 2-ethyl-N-{(3R)-1-[(6-methylpyridin-3-yl)carbonyl]pyrrolidin-3-yl}piperidine-1-carboxamide], where the note is “1 nM”, the inhibition at 0.001 µM turned out to be 46%.
The compound `CCCC1CCN(C(=O)N[C@@H]2CCN(C(=O)c3ccc(C)nc3)C2)CC1` [Example 69, N-{(3R)-1-[(6-methylpyridin-3-yl)carbonyl]pyrrolidin-3-yl} -4-propylpiperidine-1-carboxamide] returned an inhibition at 0.0001 µM of 87%.
As for `Cc1ccc(C(=O)N2CC[C@@H](NC(=O)N3CCCCCC3)C2)cn1` [Example 70, N-{(3R)-1-[(6-methylpyridin-3-yl)carbonyl]pyrrolidin-3-yl}azepane-1-carboxamide], the inhibition at 0.0001 µM was determined as 97%.
As for `CCN(CCOC)C(=O)N[C@@H]1CCN(C(=O)c2ccc(C)nc2)C1` [Example 71, N-ethyl-N-(2-methoxyethyl)-N'-{(3R)-1-[(6-methylpyridin-3-yl)carbonyl]pyrrolidin-3-yl}urea], the inhibition at 0.0001 µM was 53%.
`CCCN(CCOC)C(=O)N[C@@H]1CCN(C(=O)c2ccc(C)nc2)C1` [Example 72, N-(2-methoxyethyl)-N'-{(3R)-1-[(6-methylpyridin-3-yl)carbonyl]pyrrolidin-3-yl}-N-propylurea] gave an inhibition at 0.0001 µM of 89%.
`COCCN(CCOC)C(=O)N[C@@H]1CCN(C(=O)c2ccc(C)nc2)C1` [Example 73, N,N-bis(2-methoxyethyl)-N'-{(3R)-1-[(6-methylpyridin-3-yl)carbonyl]pyrrolidin-3-yl}urea] had an inhibition at 0.0001 µM of 71%.
With `Cc1ccc(C(=O)N2CC[C@@H](NC(=O)N3CC4(C)CC3CC(C)(C)C4)C2)cn1` (stereo partly drawn) [Example 74, 1,3,3-trimethyl-N-{(3R)-1-[(6-methylpyridin-3-yl)carbonyl]pyrrolidin-3-yl}-6-azabicyclo[3.2.1]octane-6-carboxamide], the inhibition at 0.0001 µM amounted to 68%.
The compound `Cc1ccc(C(=O)N2CC[C@@H](NC(=O)N(C)CCc3ccccc3)C2)cn1` [Example 75, N-methyl-N'-{(3R)-1-[(6-methylpyridin-3-yl)carbonyl]pyrrolidin-3-yl}-N-(2-phenylethyl)urea] gave an inhibition at 0.001 µM (1 nM) of 76%.
Compound `CCC(C)N1CCN(C(=O)N[C@@H]2CCN(C(=O)c3ccc(C)nc3)C2)CC1` (stereo partly drawn) [Example 76, 4-sec-butyl-N-{(3R)-1-[(6-methylpyridin-3-yl)carbonyl]pyrrolidin-3-yl}piperazine-1-carboxamide] showed an inhibition at 0.0001 µM of 58%.
Compound `CCOCCN1CCN(C(=O)N[C@@H]2CCN(C(=O)c3ccc(C)nc3)C2)CC1` [Example 77, 4-(2-ethoxyethyl)-N-{(3R)-1-[(6-methylpyridin-3-yl)carbonyl]pyrrolidin-3-yl}piperazine-1-carboxamide] gave an inhibition at 0.0001 µM of 58%.
Regarding `Cc1ccc(C(=O)N2CC[C@@H](NC(=O)N3CCN(C4CCCCC4)CC3)C2)cn1` [Example 78, 4-cyclohexyl-N-{(3R)-1-[(6-methylpyridin-3-yl)carbonyl]pyrrolidin-3-yl}piperazine-1-carboxamide], at 0.0001 µM the inhibition was 67%.
For the compound `Cc1ccc(C(=O)N2CC[C@@H](NC(=O)N3CCN(CCc4cccs4)CC3)C2)cn1` [Example 79, N-{(3R)-1-[(6-methylpyridin-3-yl)carbonyl]pyrrolidin-3-yl}-4-(2-thien-2-ylethyl)piperazine-1-carboxamide], 0.0001 µM produced 48% inhibition.
Take `Cc1ccc(C(=O)N2CC[C@@H](NC(=O)N3CCN(CC(=O)N4CCCCC4)CC3)C2)cn1` [Example 80, N-{(3R)-1-[(6-methylpyridin-3-yl)carbonyl]pyrrolidin-3-yl}-4-(2-oxo-2-piperidin-1-ylethyl)piperazine-1-carboxamide]: the inhibition at 0.0001 µM turned out to be 73%.
As to `Cc1ccc(C(=O)N2CC[C@@H](NC(=O)N3CCN(C(=O)C4CCCCC4)CC3)C2)cn1` [Example 81, 4-(cyclohexylcarbonyl)-N-{(3R)-1-[(6-methylpyridin-3-yl)carbonyl]pyrrolidin-3-yl}piperazine-1-carboxamide], the inhibition at 0.0001 µM came out at 55%.
Turning to `Cc1ccc(C(=O)N2CC[C@@H](NC(=O)N(CCO)Cc3ccccc3)C2)cn1` [Example 82, N-benzyl-N-(2-hydroxyethyl)-N'-{(3R)-1-[(6-methylpyridin-3-yl)carbonyl]pyrrolidin-3-yl}urea], the inhibition at 0.0001 µM came to 57%.
Consider `Cc1ccc(C(=O)N2CCC(NC(=O)N(C)CC(O)c3ccccc3)C2)cn1` (stereo not drawn) [Example 83, N-(2-hydroxy-2-phenylethyl)-N-methyl-N'-{1-[(6-methylpyridin-3-yl)carbonyl]pyrrolidin-3-yl}urea], for which the inhibition at 0.0001 µM was determined as 80%.
For the compound `Cc1ccc(C(=O)N2CC[C@@H](NC(=O)N(C)CCc3ccccn3)C2)cn1` [Example 84, N-methyl-N'-{(3R)-1-[(6-methylpyridin-3-yl)carbonyl]pyrrolidin-3-yl}-N-(2-pyridin-2-ylethyl)urea], the inhibition at 0.0001 µM came out at 62%.
Take `Cc1ccc(C(=O)N2CC[C@@H](NC(=O)N3CCC(O)CC3)C2)cn1` [Example 85, 4-hydroxy-N-{(3R)-1-[(6-methylpyridin-3-yl)carbonyl]pyrrolidin-3-yl}piperidine-1-carboxamide]: the inhibition at 0.0001 µM came out at 55%.
`Cc1ccc(C(=O)N2CC[C@@H](NC(=O)N3CCC(C(N)=O)CC3)C2)cn1` [Example 86, N^1-{(3R)-1-[(6-methylpyridin-3-yl)carbonyl]pyrrolidin-3-yl}piperidine-1,4-dicarboxamide] gave an inhibition at 0.0001 µM of 74%.
The same measure, in the same setting: the value for `Cc1ccc(C(=O)N2CC[C@@H](NC(=O)N3CCC4(CC3)OCCO4)C2)cn1` [Example 87, N-{(3R)-1-[(6-methylpyridin-3-yl)carbonyl]pyrrolidin-3-yl}-1,4-dioxa-8-azaspiro[4.5]decane-8-carboxamide] was 55%.
As to `Cc1ccc(C(=O)N2CC[C@@H](NC(=O)N3CC(C)OC(C)C3)C2)cn1` (stereo partly drawn) [Example 88, 2,6-dimethyl-N-{(3R)-1-[(6-methylpyridin-3-yl)carbonyl]pyrrolidin-3-yl}morpholine-4-carboxamide], the inhibition at 10 pM was 81%.
The compound `Cc1ccc(C(=O)N2CC[C@@H](NC(=O)N3CCN(c4ccccc4)CC3)C2)cn1` [Example 89, N-{(3R)-1-[(6-methylpyridin-3-yl)carbonyl]pyrrolidin-3-yl}-4-phenylpiperazine-1-carboxamide] came in with an inhibition at 0.0001 µM of 62%.
The compound `Cc1ccc(C(=O)N2CC[C@@H](NC(=O)N3CCN(c4ccccn4)CC3)C2)cn1` [Example 90, N-{(3R)-1-[(6-methylpyridin-3-yl)carbonyl]pyrrolidin-3-yl}-4-pyridin-2-ylpiperazine-1-carboxamide] showed an inhibition at 10 pM of 52%.
Consider `Cc1ccc(C(=O)N2CC[C@@H](NC(=O)N3CCN(c4ccccc4F)CC3)C2)cn1` [Example 91, 4-(2-fluorophenyl)-N-{(3R)-1-[(6-methylpyridin-3-yl)carbonyl]pyrrolidin-3-yl}piperazine-1-carboxamide], for which the inhibition at 10 pM came to 57%.
Same read-out and setting: the value for `Cc1ccc(C(=O)N2CC[C@@H](NC(=O)N3CCN(c4ccc(F)cc4)CC3)C2)cn1` [Example 92, 4-(4-fluorophenyl)-N-{(3R)-1-[(6-methylpyidin-3-yl)carbonyl]pyrrolidin-3-yl}piperazine-1-carboxamide] was 67%.
The compound `COc1ccccc1N1CCN(C(=O)N[C@@H]2CCN(C(=O)c3ccc(C)nc3)C2)CC1` [Example 93, 4-(2-methoxyphenyl)-N-{(3R)-1-[(6-methylpyridin-3-yl)carbonyl]pyrrolidin-3-yl}piperazine-1-carboxamide] yielded an inhibition at 0.0001 µM of 72%.
`CCOC(=O)CN1CCN(C(=O)N[C@@H]2CCN(C(=O)c3ccc(C)nc3)C2)CC1` [Example 95, ethyl {4-[({(3R)-1-[(6-methylpyridin-3-yl)carbonyl]pyrrolidin-3-yl}amino)carbonyl]piperazin-1-yl} acetate] yielded an inhibition at 10 pM of 62%.
`Cc1ccc(C(=O)N2CC[C@@H](NC(=O)N3CCN(c4ccc([N+](=O)[O-])cc4)CC3)C2)cn1` [Example 96, N-{(3R)-1-[(6-methylpyridin-3-yl)carbonyl]pyrrolidin-3-yl}-4-(4-nitrophenyl)piperazine-1-carboxamide] returned an inhibition at 0.0001 µM of 75%.
Compound `COCC1CCCN(C(=O)N[C@@H]2CCN(C(=O)c3ccc(C)nc3)C2)C1` (stereo partly drawn) [Example 97, 3-(methoxymethyl)-N-{(3R)-1-[(6-methylpyridin-3-yl)carbonyl]pyrrolidin-3-yl}piperidine-1-carboxamide] yielded an inhibition at 10 pM of 54%.
“N-{(3R)-1-[(2-chloro-6-methylpyridin-3-yl)carbonyl]pyrrolidin-3-yl}-1,3,3-trimethyl-6-azabicyclo[3.2.1]octane-6-carboxamide [Example 36]”: the “% Inhibition @ 1 nM” value (1 nM) worked out at 64%.

For the origin of these results see patent publication EP1680415B1, “PYRROLIDINYL UREA DERIVATIVES AS ANGIOGENESIS INHIBITORS” (ABBOTT LABORATORIES, priority 2003, dated 2005).
